Results as given in US10213409B2, “Substituted benzofurans, benzothiophenes, benzoselenophenes and indoles and their use as tubulin polymerisation inhibitors” (Bionomics Limited, priority 2006, dated 2019).

Tests used:
[1] = system: MDA-MB-231 solid orthotopic tumors; experiment: Tumor Growth Inhibition; assay type: in vivo, Balb/c nu/nu mice; settings: 40 mg/kg i.v., two cycles, 72 days; vs vehicle, significant from day 4 (p<0.001) to Day 70, FIG. 5
Experimental: Balb/c nu/nu mice bearing MDA-MB-231 solid orthotopic tumors were treated with compound Example 29 at 40 mg/kg. Animals were i.v. dosed with a total of two cycles of Example 29 treatment. Each cycle was dosing on […] followed by a three week no-dosing period. Tumor growth represented as a ratio to initial tumor volume is shown over a total of 72-days.
Tumor growth as well as animal health were monitored for up to 72 days post-day 1 of treatment. […] Significant differences in tumor growth between Example 29 treated (n=64) and vehicle treated (n=20) animals were observed as early as day 4 (p<0.001; unpaired t-test; Prism® analysis) through to Day 70.

[2] = system: MDA MB 231 orthotopic xenografts; experiment: Vascular Disruption Assay (tumor perfusion, Hoechst 33342); assay type: in vivo, BALB/c-nu/nu mice; settings: compared with CA4 / CA4P, FIG. 4; i.v., 24 hours after injection
Source text: Vascular Disruption Assay:
Female athymic BALB/c-nu/nu mice (nude mice) were used for this study. Mice were between 6-8 weeks old and were purchased from the Animal Resource Centre, Perth, Western Australia and allowed to acclimatize for a couple of days. All the animals were housed under pathogen-free conditions and cared for in accordance with Flinders University of South Australia and NH&MRC guidelines and the Australian Code of Practice for the care and use of animals for scientific purposes. The human breast cancer MDA MB 231 was grown as orthotopic xenografts in the mammary fat pad of nude mice. Each mouse was injected with 2×10^6 cells in 50 μl Dulbecco's PBS subcutaneously just above the mammary fat pad, below the right forward limb. Tumors were selected for treatment when they reached a diameter of […] (3 weeks after implantation). The test compound (Example 29) was dissolved in saline solution and injected intravenously at concentrations ranging from 150 mg/kg-1 mg/kg in a total volume of 400 ul. […] Non-tumor regions were mapped on Hoechst 33342 composite images and excluded from the quantitation analysis. Quantitation was performed by measuring the pixel area of Hoechst 33342 staining and the total pixel area of the tumor region. Perfusion was expressed as a percentage of Hoechst 33342 stained area to total tumor area (see FIG. 4).

MDA-MB-231 = experiment: Growth inhibition, Sulforhodamine B (SRB) or Systmex cell counting (CC) assay, MDA-MB-231; assay type: cell-based; settings: Homo sapiens; MDA-MB-231 (footnote b); concentration required to inhibit net cell growth by 50%; read-out: Cancer cell line IC50
[3] = system: Human umbilical vein endothelial cells (HUVECs), tumour type activated (Tum); experiment: Proliferation Assay - Activated Endothelium (MTT); assay type: cell-based; settings: for IC50: Homo sapiens, HUVEC, tumour type activated endothelial cells; for potency towards activated (tumour) versus quiescent (normal) endothelial cells: comparison of activated and quiescent HUVEC assays, FIGS. 1 and 2, Table 1
Experimental: Proliferation Assay—Activated Endothelium:
(§1) Cells were cultured overnight at 37° C. 5% CO2. Medium was subsequently replaced with fresh medium including the compound or negative control. Cells were cultured for a period of 48 hrs. An MTT assay was performed to measure changes in cell numbers. Briefly, 20 μl of MTT reagent was added to cells containing 100 μl of EGM2 and incubated at 37° C. for 2 hours.

[4] = system: Human umbilical vein endothelial cells (HUVECs), normal quiescent type (Norm); experiment: Proliferation Assay - Quiescent Endothelium (MTT); assay type: cell-based; settings: HUVEC
Experimental: Proliferation Assay—Quiescent Endothelium:
as §1, with “EBM2+0.5% FBS” for “EGM2”

tubulin = experiment: Tubulin Polymerisation Assay (fluorescent-based kit); assay type: biochemical; settings: compared with CA4 (1), FIG. 3
Experimental: Tubulin Polymerisation Assay:
Tubulin polymerisation inhibition assays were performed using a fluorescent-based detection kit (#BK011, Cytoskeleton) according to the instructions of the manufacturer. The test compound was added to a 2 mg/ml tubulin solution containing 20% glycerol and 1 mM GTP in 1× Buffer 1 (Buffer 1: 80 mM Piperazine-N,N′-bis[2-ethanesulfonic acid] sequisodium salt; 2 mM magnesium chloride; 0.5 mM Ethylene glycol-bis(b-amino-ethyl ether)N,N,N′,N′-tetra-acetic acid, pH 6.9, 10 uM fluorescent reporter). Fluorescence was measured over a period of 42 minutes at 1 minute intervals. Increased fluorescence indicates increase in tubulin polymerisation. There is a ten-fold increase in the affinity of the fluorescent reporter for polymerised tubulin compared to monomeric tubulin subunits. The result is a fluorescence signal that closely follows tubulin polymerisation.

MCF-7 = experiment: Growth inhibition, Sulforhodamine B (SRB) or Systmex cell counting (CC) assay, MCF-7; assay type: cell-based; settings: Homo sapiens, MCF7, concentration required to inhibit net cell growth by 50%, read-out: Cancer cell line IC50

| Structure (SMILES) | tumor growth (ratio to initial tumor volume) [1] | potency at shutting-down tumour vasculature (reduction in tumour perfusion) [2] | IC50 (MDA-MB-231) [nM] | IC50 [3] [nM] | IC50 [4] [nM] | potency towards activated (tumour) versus quiescent (normal) endothelial cells [3] | potency in inhibiting tubulin polymerisation (tubulin) | IC50 (MCF-7) [nM] |
| --- | --- | --- | --- | --- | --- | --- | --- | --- |
| COc1cc(C(=O)c2c(C)oc3c(OP(=O)([O-])[O-])c(OC)ccc23)cc(OC)c1OC.[Na+].[Na+] [Example 29, Disodium 6-methoxy-2-methyl-3-(3,4,5-trimethoxybenzoyl)benzofuran-7-yl phosphate] | tumor growth inhibition | significantly greater potency than CA4 (1) |  |  |  |  |  |  |
| COc1cc(C(=O)c2c(N(C)C)oc3c(O)c(OC)ccc23)cc(OC)c1OC [Example 22, (2-N,N′-Dimethylamino-7-hydroxy-6-methoxy-benzofuran-3-yl)-(3,4,5-trimethoxy-phenyl)-methanone] |  |  | 1 to 10 | 1 to 10 | 1 to 10 |  |  |  |
| COc1cc(C(=O)c2c(Nc3cccnc3)oc3c(O)c(OC)ccc23)cc(OC)c1OC [Example 25, [7-Hydroxy-6-methoxy-2-(pyridin-3-ylamino)-benzofuran-3-yl]-(3,4,5-trimethoxy-phenyl)-methanone] |  |  | 1 to 10 | 1 to 10 | 1 to 10 |  |  |  |
| COc1cc(C(=O)c2c(NCCN(C)C)oc3c(O)c(OC)ccc23)cc(OC)c1OC [Example 21] |  |  | 10 to 100 | 10 to 100 | 10 to 100 |  |  |  |
| COc1cc(C(=O)c2c(NCCO)oc3c(O)c(OC)ccc23)cc(OC)c1OC [Example 20, [7-Hydroxy-2-(2-hydroxy-ethylamino)-6-methoxy-benzofuran-3-yl]-(3,4,5-trimethoxy-phenyl)methanone] |  |  | 1 to 10 | 1 to 10 | 1 to 10 |  |  |  |
| COc1cc(C(=O)c2c(/C=C/C(N)=O)oc3c(O)c(OC)ccc23)cc(OC)c1OC [Example 15, (E)-3-[7-Hydroxy-6-methoxy-3-(3,4,5-trimethoxy-benzoyl)benzofuran-2-yl]-acrylamide] |  |  | 1 to 10 | 1 to 10 | 1 to 10 | higher potency towards tumour endothelial cells (activated) over normal endothelial cells (quiescent) |  |  |
| COc1cc(C(=O)c2c(C)oc3c(O)c(OC)ccc23)cc(OC)c1OC [Example 11, 2-Methyl-7-hydroxy-3-(3,4,5-trimethoxybenzoyl)-6-methoxybenzofuran] |  |  |  | 0.1 to 1 | 10 to 100 | higher potency towards tumour endothelial cells (activated) over normal endothelial cells (quiescent) | significantly greater potency than CA4 (1) | 2 |
